The results in this text go back to patent US12172985B1, “6-(6-bromo-2-oxo-2H-chromen-3-yl)-4-(3-bromophenyl)-2-alkoxynicotinonitrile as antimicrobial compounds” (KING FAISAL UNIVERSITY, priority 2023, dated 2024).

Each structure is given as a SMILES string.

Assay type in all cases: cell-based
The subject of one test is Aspergillus flavus. The test can be described thus: Agar plate disc-diffusion, antifungal inhibition zone. Particulars: DMSO control zone subtracted. Here is the method: (§1) The agar plate disc-diffusion method was applied. Sterilized filter papers (6 mm in diameter) were wetted with 10 μL of a solution of compounds 6-(6-bromo-2-oxo-2H-chromen-3-yl)-4-(3-bromophenyl)-2-ethoxynicotinonitrile 1 or 6-(6-bromo-2-oxo-2H-chromen-3-yl)-4-(3-bromophenyl)-2-methoxynicotinonitrile 2 to be tested, containing […], and the discs were allowed to air dry. The discs were then placed onto the surface of agar plates (nutrient agar for bacteria and Sabouraud's dextrose agar for fungi) seeded with the test organism. Each plate contained 15 mL of the agar medium, previously seeded with 0.2 mL of the broth culture of each organism pregrown for 18 hours. The plates were incubated at 37° C. for 48 hours, and 72 hours for fungi. The inhibition zones were measured in mm. Discs impregnated with DMSO were used as a control, and its inhibition zone was subtracted from the tested compound actual inhibition zone.
(§2) The results of the antimicrobial testing can be observed in Tables 1 and 2, below, using ciprofloxacin as a reference.

For test [1], the system named is Chrysosporium keratinophilum. Described as above. Conditions: DMSO control zone subtracted. Here is the method:
as §1, §2

In a further test the test system is Pseudomonas aeruginosa. The test can be described thus: Agar plate disc-diffusion, antibacterial inhibition zone. Conditions: DMSO control zone subtracted. Here is the method: as §1, §2
The test system of another test is Escherichia coli. Described as above. Particulars: DMSO control zone subtracted. Here is the method:
as §1, §2

The test system of another test is Staphylococcus aureus. The description is as above. Conditions: DMSO control zone subtracted. Here is the method: as §1, §2
The test system of another test is Bacillus Cereus. The test is described as above. Conditions: DMSO control zone subtracted. Here is the method:
as §1, §2

The next test has as its system different microbes. The experiment in a line: Antimicrobial testing, overall conclusion. Particulars: summary of Tables 1 and 2, bacteria and fungi. Here is the method:
as §1, §2
Their antibacterial activity was screened against gram positive bacteria namely Bacillus cereus and Staphylococcus aureus and gram-negative bacterial strains namely Pseudomonas aeruginosa and Escherichia coli, while their antifungal activity was screened against Aspergillus flavus and Chrysosporium keratinophilum.

[2] abbreviates: A = concentration of comp. = 10,000 μL.
The mark [3] stands for this setting: B = concentration of comp. = 30,000 μL.
Setting [4] is: C = concentration of comp. = 50,000 μL.

In the case of `O=C(O)c1cn(C2CC2)c2cc(N3CCNCC3)c(F)cc2c1=O` [Cip., ciprofloxacin, reference compound], the inhibition zone came to 29 mm in the test with Aspergillus flavus (setting [2]); 30 mm with Aspergillus flavus (setting [3]); 42 mm with Aspergillus flavus (setting [4]); 29 mm in test [1] (setting [2]); 30 mm in test [1] (setting [3]); 53 mm in test [1] (setting [4]). The inhibition zone amounted to 29 mm in the test with Pseudomonas aeruginosa (A = concentration of comp.); 30 mm in the test with Pseudomonas aeruginosa (setting [3]); 53 mm in the test with Pseudomonas aeruginosa (setting [4]); 30 mm with Escherichia coli (setting [2]); 39 mm in the test with Escherichia coli (setting [3]); 60 mm in the test on Escherichia coli (setting [4]). Also, the inhibition zone in the test with Staphylococcus aureus (setting [2]) is recorded as 43 mm; in the test with Staphylococcus aureus (setting [3]) it was 44 mm; in the test on Staphylococcus aureus (setting [4]) it was 53 mm; with Bacillus Cereus (A =), 29 mm; in the test with Bacillus Cereus (setting [3]), 30 mm; with Bacillus Cereus (setting [4]), 42 mm.

Turning to `CCOc1nc(-c2cc3cc(Br)ccc3oc2=O)cc(-c2cccc(Br)c2)c1C#N` [Compound 1, 6-(6-bromo-2-oxo-2H-chromen-3-yl)-4-(3-bromophenyl)-2-ethoxynicotinonitrile], the “antimicrobial activities (in words)” value in the test on different microbes was “high antimicrobial activities”. The inhibition zone in the test with Aspergillus flavus (setting [2]) was 20 mm; in the test with Aspergillus flavus (setting [3]), 24 mm; with Aspergillus flavus (setting [4]), 34 mm; in test [1] (setting [2]), 25 mm; in test [1] (setting [3]), 28 mm; in test [1] (setting [4]), 39 mm. For the same compound, the inhibition zone in the test on Pseudomonas aeruginosa (A = concentration of comp.) is on record as 24 mm; with Pseudomonas aeruginosa (setting [3]), 28 mm; in the test with Pseudomonas aeruginosa (setting [4]), 38 mm; in the test on Escherichia coli (setting [2]), 28 mm; with Escherichia coli (setting [3]) it was 37 mm; in the test on Escherichia coli (setting [4]) it was 48 mm. Also, the inhibition zone came to 16 mm in the test on Staphylococcus aureus (setting [2]); 19 mm in the test on Staphylococcus aureus (setting [3]); 33 mm with Staphylococcus aureus (setting [4]); 23 mm with Bacillus Cereus (A =); 26 mm in the test on Bacillus Cereus (setting [3]); 36 mm with Bacillus Cereus (setting [4]).

As for `COc1nc(-c2cc3cc(Br)ccc3oc2=O)cc(-c2cccc(Br)c2)c1C#N` [Compound 2, 6-(6-bromo-2-oxo-2H-chromen-3-yl)-4-(3-bromophenyl)-2-methoxynicotinonitrile], in the test on different microbes, the “antimicrobial activities (in words)” value is “high antimicrobial activities”. Moreover, the inhibition zone with Aspergillus flavus (setting [2]) came to 24 mm; in the test with Aspergillus flavus (setting [3]), 27 mm; in the test with Aspergillus flavus (setting [4]), 39 mm; in test [1] (setting [2]), 24 mm; in test [1] (setting [3]) it was 28 mm; in test [1] (setting [4]), 42 mm. Besides, the inhibition zone is 25 mm with Pseudomonas aeruginosa (A = concentration of comp.); 32 mm with Pseudomonas aeruginosa (setting [3]); 37 mm in the test with Pseudomonas aeruginosa (setting [4]); 28 mm in the test on Escherichia coli (setting [2]); 35 mm in the test with Escherichia coli (setting [3]); 48 mm in the test on Escherichia coli (setting [4]). The inhibition zone in the test on Staphylococcus aureus (setting [2]) is 15 mm; in the test with Staphylococcus aureus (setting [3]), 23 mm; with Staphylococcus aureus (setting [4]), 29 mm; with Bacillus Cereus (A =), 27 mm; with Bacillus Cereus (setting [3]), 29 mm; in the test with Bacillus Cereus (setting [4]) it was 37 mm.
